These results are taken from PubChem BioAssay (NCI).

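How tested: cells in 96-well plates exposed to compound for 48 hours at five concentrations. Here, GI50 denotes the concentration required for 50% inhibition of growth. At the TGI there is no net growth.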 Where only a bound is given, the exact number is not on record here.

Some test systems named below: OVCAR-3 ovarian; CCRF-CEM leukemia; SK-OV-3 ovarian; MOLT-4 leukemia; RXF 393 renal; UACC-62 melanoma; CAKI-1 renal; SF-295 CNS; NCI/ADR-RES ovarian; MCF7 breast.
What all share (experiment): inhibition of tumour cell growth, NCI panel, 48 h

`Cc1cccc2[s+]snc12`: the TGI in the assay on OVCAR-3 ovarian is over 89 µM; with CCRF-CEM leukemia, over 65.1 µM; in the assay with SK-OV-3 ovarian, over 100 µM; in the assay on MOLT-4 leukemia, over 65.2 µM; in the assay with RXF 393 renal it was over 75.1 µM; in the assay with UACC-62 melanoma, over 100 µM. For the same compound, the TGI in the assay on CAKI-1 renal and in the assay on SF-295 CNS was over 100 µM throughout.
As for `CCOC(=O)/C(C#N)=C1\c2c([nH]c(=S)[nH]c2=O)Oc2ccc3ccccc3c21`, the TGI with OVCAR-3 ovarian was 58.8 µM; in the assay with CCRF-CEM leukemia, 4.26 µM; in the assay with SK-OV-3 ovarian, over 100 µM; with MOLT-4 leukemia, 47.3 µM; in the assay on NCI/ADR-RES ovarian, over 100 µM; in the assay on RXF 393 renal, over 100 µM. In addition, the TGI with UACC-62 melanoma, in the assay on MCF7 breast, in the assay on CAKI-1 renal and in the assay on SF-295 CNS was over 100 µM in each case.
With `NC(=O)C(c1ccccc1)N1OC2C(=O)N(c3cccc4ccccc34)C(=O)C2C1c1c2ccccc2c(Cl)c2ccccc12` (centres undefined), the TGI in the assay on OVCAR-3 ovarian is 17.5 µM; in the assay with SK-OV-3 ovarian, over 50 µM; in the assay on MOLT-4 leukemia it was 9.03 µM; in the assay on NCI/ADR-RES ovarian, 28.2 µM; in the assay with RXF 393 renal it was 16.8 µM; with UACC-62 melanoma, 13.8 µM. Also, the results for the TGI in the assay with MCF7 breast, in the assay with CAKI-1 renal and with SF-295 CNS were 11.2 µM, 22.7 µM and 23.9 µM, respectively.
On to `CCC(=O)NC(Nc1ccc(O)cc1)(C(F)(F)F)C(F)(F)F`, for which the TGI in the assay on OVCAR-3 ovarian, with CCRF-CEM leukemia, in the assay with SK-OV-3 ovarian, with MOLT-4 leukemia, with RXF 393 renal and in the assay on UACC-62 melanoma was over 100 µM throughout. In the assay on MCF7 breast, the TGI was over 100 µM.
Consider `C/C(=N/O)c1cccc(Nc2nc3ccc(Cl)cc3c3[nH]c4ccccc4c23)c1`, for which the TGI with OVCAR-3 ovarian is 4.65 µM; in the assay with SK-OV-3 ovarian, 13.6 µM; in the assay on MOLT-4 leukemia it was 5.97 µM; with NCI/ADR-RES ovarian, 6.26 µM; with RXF 393 renal it was 3.27 µM; with UACC-62 melanoma, 3.94 µM. The TGI was found to be 2.75 µM in the assay with MCF7 breast, 6.11 µM with CAKI-1 renal and 4.32 µM in the assay on SF-295 CNS.
With `NNc1nc2ccccc2s1`, the TGI with CCRF-CEM leukemia, with MOLT-4 leukemia, in the assay with NCI/ADR-RES ovarian, in the assay on RXF 393 renal, in the assay with UACC-62 melanoma and in the assay with MCF7 breast was over 100 µM in each case. Besides, the TGI in the assay on CAKI-1 renal is over 100 µM.
`CCC1=CC2Cc3nc4cc(Cl)ccc4c(N)c3C(C1)C2` (centres undefined): the TGI was 21.9 µM in the assay with OVCAR-3 ovarian; 15.9 µM in the assay on CCRF-CEM leukemia; 25.9 µM in the assay on SK-OV-3 ovarian; 3.28 µM in the assay with MOLT-4 leukemia; 27.6 µM with NCI/ADR-RES ovarian; 8.15 µM with RXF 393 renal. In addition, the TGI is 18.4 µM in the assay on UACC-62 melanoma, 17.6 µM with MCF7 breast, 8.38 µM in the assay on CAKI-1 renal and 12.2 µM in the assay with SF-295 CNS.
For `NC(N)=N/N=C/c1c(-c2ccc([N+](=O)[O-])cc2)nc2n1CCS2`, the TGI in the assay on OVCAR-3 ovarian was 41.3 µM; with CCRF-CEM leukemia, 11.8 µM; with SK-OV-3 ovarian, 43.2 µM; in the assay on MOLT-4 leukemia, over 33 µM; with NCI/ADR-RES ovarian, over 100 µM; in the assay on RXF 393 renal, 23.4 µM. In addition, the TGI with UACC-62 melanoma came out at 35.3 µM; in the assay with MCF7 breast, 30.3 µM; in the assay on CAKI-1 renal, 34.4 µM; in the assay on SF-295 CNS, 36.7 µM.
In the case of `O=[N+]([O-])c1ccc(Nc2nc3ccccc3s2)cc1`, the TGI is 57.7 µM in the assay on OVCAR-3 ovarian; 30.3 µM with MOLT-4 leukemia; over 100 µM in the assay on NCI/ADR-RES ovarian; 28.9 µM in the assay with RXF 393 renal; 58.7 µM in the assay with UACC-62 melanoma; over 100 µM in the assay with CAKI-1 renal. The TGI with SF-295 CNS was over 100 µM.
Consider `CC1=CC(=O)C(=O)C2=C1OC1(C2)C(C)CCC2C3(C)CCC(O)C(C)(C)C3CCC21C` (centres undefined), for which the TGI stood at 34.6 µM in the assay with OVCAR-3 ovarian; 65.2 µM with CCRF-CEM leukemia; 73.8 µM with SK-OV-3 ovarian; 78.4 µM in the assay on MOLT-4 leukemia; 33.2 µM with RXF 393 renal; 36.1 µM in the assay on UACC-62 melanoma. The TGI in the assay on CAKI-1 renal was determined as 33.8 µM; in the assay on SF-295 CNS it was 35.3 µM.
As to `N=C(N)c1csc([C@@H]2O[C@H](CO)[C@@H](O)[C@H]2O)n1`, the TGI with CCRF-CEM leukemia, with SK-OV-3 ovarian, with MOLT-4 leukemia, in the assay with RXF 393 renal, with CAKI-1 renal and in the assay with SF-295 CNS was over 100 µM each time.
For the compound `COc1ccc2c(c1)N=C1CSC(c3cccc(Br)c3)N1C2` (centres undefined), the TGI in the assay on SK-OV-3 ovarian was determined as 48 µM; in the assay on MOLT-4 leukemia, 31 µM; in the assay on NCI/ADR-RES ovarian, 58 µM; in the assay on RXF 393 renal, 29.7 µM; in the assay with UACC-62 melanoma, 31.8 µM; in the assay on MCF7 breast, 25.2 µM. In addition, the figures for the TGI with CAKI-1 renal and with SF-295 CNS were 59.3 µM and 40.8 µM, respectively.
As to `CC12CCC(C(=O)N3CC=CCC3)(OC1=O)C2(C)C` (centres undefined), the TGI with OVCAR-3 ovarian, in the assay on CCRF-CEM leukemia, with SK-OV-3 ovarian, with MOLT-4 leukemia, with NCI/ADR-RES ovarian and with RXF 393 renal was over 100 µM each time. Further, the TGI in the assay on UACC-62 melanoma, in the assay on MCF7 breast, with CAKI-1 renal and with SF-295 CNS was over 100 µM each time.
Regarding `c1cn2cc(-c3ccc4ncn(C5CCCCC5)c4c3)nc(-c3ccc4c(c3)ncn4C3CCCCC3)c2n1`, the GI50 in the assay with OVCAR-3 ovarian is 1.83 µM; in the assay on CCRF-CEM leukemia it was 1.69 µM; in the assay on SK-OV-3 ovarian it was 2.27 µM; in the assay on MOLT-4 leukemia, 1.64 µM; in the assay with NCI/ADR-RES ovarian it was 2.34 µM; in the assay with RXF 393 renal, 1.51 µM. Moreover, the GI50 with MCF7 breast is 1.8 µM; in the assay on CAKI-1 renal, 1.46 µM; with SF-295 CNS it was 1.71 µM. Further, the TGI with OVCAR-3 ovarian was 3.36 µM; in the assay on CCRF-CEM leukemia it was 6.08 µM; in the assay with SK-OV-3 ovarian it was 4.1 µM; with MOLT-4 leukemia, 5.22 µM; in the assay with NCI/ADR-RES ovarian, 7.33 µM; in the assay on RXF 393 renal, 3 µM. Further, the TGI in the assay with MCF7 breast was 4.58 µM; in the assay on CAKI-1 renal, 2.95 µM; in the assay with SF-295 CNS, 3.15 µM.
Regarding `O=C1C(=O)c2ccccc2C(O)=C1CN(CCCl)CCCl`, the TGI in the assay with OVCAR-3 ovarian, with CCRF-CEM leukemia, in the assay with SK-OV-3 ovarian, with MOLT-4 leukemia, in the assay with RXF 393 renal and with UACC-62 melanoma was over 100 µM in each case. Besides, the TGI with CAKI-1 renal and in the assay on SF-295 CNS was over 100 µM in each case.
Regarding `COc1cc(C2=C(C#N)C(N)OC3=C2COc2ccccc23)cc(OC)c1OC` (centres undefined), the TGI with OVCAR-3 ovarian is 34.3 µM; in the assay with CCRF-CEM leukemia, over 100 µM; in the assay with SK-OV-3 ovarian, 39.3 µM; in the assay on MOLT-4 leukemia, over 100 µM; with NCI/ADR-RES ovarian, over 100 µM; in the assay on UACC-62 melanoma, over 100 µM. The TGI with MCF7 breast is over 100 µM.
For the compound `Nc1ccc2c3c(n(CCCCl)c(=O)c2c1)-c1cc2c(cc1C3=O)OCO2`, the GI50 was over 100 µM with OVCAR-3 ovarian; over 100 µM with CCRF-CEM leukemia; over 100 µM in the assay with SK-OV-3 ovarian; 2.14 µM in the assay with MOLT-4 leukemia; over 100 µM in the assay on NCI/ADR-RES ovarian; 55.1 µM in the assay with RXF 393 renal. The GI50 was over 100 µM in the assay with UACC-62 melanoma, 1.03 µM in the assay on CAKI-1 renal and 0.349 µM in the assay on SF-295 CNS. For the same compound, the TGI in the assay on OVCAR-3 ovarian, in the assay on CCRF-CEM leukemia, in the assay with SK-OV-3 ovarian, in the assay with MOLT-4 leukemia, in the assay on NCI/ADR-RES ovarian and with RXF 393 renal was over 100 µM throughout. Moreover, the TGI in the assay on UACC-62 melanoma, in the assay with CAKI-1 renal and with SF-295 CNS was over 100 µM throughout.
On to `COC1CC(OC2CCC3(C)C(CCC45CCC(C6=CC(=O)OC6)C(C)(CCC43)C5=O)C2)OC(C)C1O` (centres undefined), for which the TGI in the assay on OVCAR-3 ovarian is 82 µM; in the assay with CCRF-CEM leukemia, 50.6 µM; with SK-OV-3 ovarian it was over 100 µM; with MOLT-4 leukemia, 65.7 µM; with NCI/ADR-RES ovarian it was over 100 µM; in the assay with RXF 393 renal, 89.4 µM. For the same compound, the TGI is over 100 µM in the assay with UACC-62 melanoma, over 100 µM in the assay on MCF7 breast, 80.1 µM in the assay with CAKI-1 renal and over 100 µM with SF-295 CNS.
Take `O=C(O)C1Cc2c([nH]c3ccccc23)C=N1` (centres undefined): the TGI with OVCAR-3 ovarian, with CCRF-CEM leukemia, in the assay with SK-OV-3 ovarian, with MOLT-4 leukemia, in the assay on NCI/ADR-RES ovarian and in the assay with RXF 393 renal was over 100 µM each time. Besides, the TGI in the assay on UACC-62 melanoma, with MCF7 breast, in the assay with CAKI-1 renal and in the assay with SF-295 CNS was over 100 µM in each case.
For the compound `NC(CCP(=O)(O)CCC1C=CC=CC1)C(=O)O` (centres undefined), the TGI with OVCAR-3 ovarian, in the assay with CCRF-CEM leukemia, in the assay on SK-OV-3 ovarian, with MOLT-4 leukemia, with NCI/ADR-RES ovarian and in the assay on RXF 393 renal was over 100 µM each time. In addition, the TGI in the assay on UACC-62 melanoma, with CAKI-1 renal and in the assay with SF-295 CNS was over 100 µM throughout.
